These results are taken from US10294476B2, “NEAT1 as a prognostic marker and therapeutic target for prostate cancer” (CORNELL UNIVERSITY, priority 2014, dated 2019).

Common to all, as to format: cell-based
Assay [1] deals with NEAT1. Description: NEAT1 expression (qRT-PCR) in treated prostate cancer cell lines. Conditions: for NEAT1 expression: VCaP cells. Here is the method: Cell culture and treatments: LnCaP and PC3 cells were grown in RPMI 1640 (Invitrogen) and supplemented with 10% fetal bovine serum (FBS) and 1% penicillin-streptomycin. RWPE1 cells were grown in Keratinocyte Serum Free Medium (K-SFM), Kit (Gibco, #17005-042). VCaP and DU145 cells were grown in DMEM (Invitrogen) and supplemented with 10% fetal bovine serum (FBS) with 1% penicillin streptomycin. NCI-H660 cells were grown in RPMI 1640 supplemented with 0.005 mg/ml insulin, 0.01 mg/ml transferrin, 30 nM sodium selenite, 10 nM hydrocortisone, 10 nM β-estradiol, 5% FBS, 1% penicillin-streptomycin and an extra 2 mM of L-glutamine (for a final concentration of 4 mM). For cell treatments in several experiments, the inventors used 10-100 nM β-estradiol (Sigma Aldrich), 10 μM Enzalutamide (Astellas), 10 μM bicalutamide (Sigma Aldrich), 1-10 nM R1881 (PE Biosystems), 10-100 nM 4-hydroxy tamoxifen (4OHT) (Sigma Aldrich), 1-10 μM ICI […] (Tocris Bioscience).
RNA isolation, cDNA synthesis and PCR experiments: Total RNA was isolated from frozen prostate tissue samples (for qPCR) and cell lines (for transcriptome sequencing and qPCR) using Trizol (Invitrogen) with DNase I digestion according to manufacturer's instructions. RNA integrity was verified on an Agilent Bioanalyzer 2100 (Agilent Technologies). cDNA was synthesized from total RNA using Superscript III (Invitrogen) and random primers (Invitrogen). Quantitative RT-PCR was performed using Power SYBR Green Mastermix (Applied Biosystems) on an Applied Biosystems 7900 Fast Real Time PCR machine. All primers were designed using Primer 3 and synthesized by Integrated DNA Technologies.
To test this hypothesis in vitro, the inventors evaluated the effect of anti-estrogens and anti-androgens on NEAT1 levels in prostate cancer cell lines.
On the technique in general: In qPCR the cycle at which signal appears reflects the starting amount.

Assay [2] concerns VCaP cells. Put plainly: Cell invasion assay (CHEMICON kit). As to conditions: E2 (10 nM), 48 hrs. Here is the method:
Invasion assay: The CHEMICON cell invasion assay kit (EMD MIlipore) was used for determining the cell invasion. Cells were serum-starved for 48 hours and then seeded at a density of 2×10^5 cells/well in the upper well of the invasion chamber. 500 μl of phenol res free DMEM media supplemented with 8% charcoal stripped serum and 10 nM E2 was added to the lower chamber. After 48-hour incubation, the invaded cells were stained by dipping the inserts in the staining solution for 20 minutes. The stained cells were then dissolved in 10% acetic acid and transferred to a 96-well plate for colorimetric reading of OD at 560 nm.

Assay [3] relates to VCaP cells. Put plainly: Colony-forming assay in NEAT1-overexpressing VCaP cells. Conditions: NEAT1-overexpressing VCaP cells with vs without E2 (10 nM), 21 days. The procedure:
Soft agar assays were performed in both VCaP and VCaP NEAT1 cells. Colonies were monitored over a period of 21 days. […] These in vitro assays establish an oncogenic role for NEAT1.

Assay [4] deals with NEAT1 promoter. Put plainly: NEAT1 promoter luciferase reporter assay. As to conditions: VCaP cells with ERα expression, -/+ E2 (10 nM) 24 hr. From the text:
Luciferase reporter assays: For ERE luciferase assays, VCaP cells were transiently transfected with the (ERE)3-5V40-luc reporter plasmid and/or ERα and/or AR as well as an internal control construct pRL harboring the renilla luciferase gene. VCaP cells were also transfected with empty vector or NEAT1 promoter (1+2) luciferase reporter constructs alone or with ERα as well as an internal control construct pRL harboring renilla luciferase gene. In order to determine the PSMA reporter activity, 293T cells and PC3 cells were co transfected with empty vector or PSMA luc and Renilla-luc reporter genes alone or with NEAT1, NEAT1+ERα, or NEAT1+AR.
[…] At 48 h cells were lysed with passive lysis buffer and luciferase activities were measured using the dual luciferase system (#E1910, Promega) and normalized with renilla luciferase activity.
The inventors inspected our ERα ChIP-seq data in VCaP ERα and NCI-H660 cells and identified two ERα binding sites on the NEAT1 promoter (FIG. 2d). […] ERα recruitment to specific regions of the NEAT1 promoter was independently validated by ERα ChIP in VCaP, VCaP ERα and NCI-H660 cells (FIG. 2e) using specific primers encompassing ERα binding sites in the NEAT1 promoter. […]

Setting [5] is: ERα antagonist alone for longer periods.
[6] abbreviates: ERα antagonist in combination with E2 (10 nM).

4-hydroxy tamoxifen [4OHT]: the NEAT1 expression result is given as “enhance NEAT1 expression” in assay [1] (setting [5]) and “constrained” in assay [1] (setting [6]).

Consider `C[C@]12CC[C@@H]3c4ccc(O)cc4C[C@@H](CCCCCCCCC[S+]([O-])CCCC(F)(F)C(F)(F)F)[C@H]3[C@@H]1CC[C@@H]2O` (some centres unmarked) [ICI 182,720], for which the NEAT1 expression result in assay [1] (setting [5]) is given as “enhance NEAT1 expression”; in assay [1] (setting [6]) it was “constrained”.

Take β-estradiol [E2]: the invasive potential result in assay [2] is recorded as “ligand-dependent modulation of invasive potential”. Besides, the NEAT1 transcript levels entry in assay [1] (panel of prostate cancer cell lines, ERα overexpression and E2 treatment (10 nM), different time points) is “upregulated NEAT1 transcript levels in a time-dependent manner”. Further, the number of colonies result in assay [3] is reported as “significantly increased the number of colonies”. The NEAT1 promoter activity result in assay [4] was “further enhanced”.
